The source of these data is ChEMBL document CHEMBL3880421, “Indazole compounds and pharmaceutical compositions for inhibiting protein kinases, and methods for their use” (2003).

The first data set is described as follows: Antiproliferative activity against VEGF-stimulated HUVEC cells assessed as reduction in cell viability at 10 nM preincubated for 1 hr followed by addition of VEGF measured after 72 hrs by MTT assay. It counts as functional. The note with it: Homo sapiens. On the technique in general: Tetrazolium dyes change colour on reduction, which living cells bring about.
Regarding `CC1(C)OC(=O)[C@H](CC(=O)Nc2cccc(C(=O)c3ccc4c(/C=C/c5ccccc5)n[nH]c4c3)c2)O1`, the inhibition at 0.01 µM is 19%. `CCC(C(=O)Nc1cccc(Nc2ccc3c(/C=C/c4ccccc4)n[nH]c3c2)c1)c1ccccc1C` (configuration not stated): the inhibition at 0.01 µM was -3%. Same read-out and setting: as for `O=C(Nc1cccc(Oc2ccc3c(/C=C/c4ccccc4)n[nH]c3c2)c1)C1C[C@H]2C=C[C@H]1C2` (some centres not stated), the figure is 82%; as for `O=C(Nc1cccc(Nc2ccc3c(/C=C/c4ccccc4)n[nH]c3c2)c1)c1cccc2cc[nH]c12`, 94%; as for `CN(C)CCCC(=O)Nc1cccc(C(=O)c2ccc3c(/C=C/c4ccccc4)n[nH]c3c2)c1`, 24%. Consider `O=C(c1cccc(NC(=O)C2CC3C=CCC(C3)C2)c1)c1ccc2c(/C=C/c3ccccc3)n[nH]c2c1` (configuration not stated), for which the inhibition at 0.01 µM is 56%. For the molecule `CC(C)CC(=O)C(=O)Nc1cccc(Nc2ccc3c(/C=C/c4ccccc4)n[nH]c3c2)c1`, the inhibition at 0.01 µM came to 11%. Same read-out and setting: as for `CN1CSCCC1C(=O)Nc1cccc(C(=O)c2ccc3c(/C=C/c4ccccc4)n[nH]c3c2)c1` (configuration not stated), the figure is 8%. On to `CN1CC(C(=O)Nc2cccc(Oc3ccc4c(/C=C/c5ccccc5)n[nH]c4c3)c2)CC1=O` (configuration not stated), for which the inhibition at 0.01 µM is 24%. Regarding `CC1(C)OC(=O)[C@H](CC(=O)Nc2cccc(Nc3ccc4c(/C=C/c5ccccc5)n[nH]c4c3)c2)O1`, the inhibition at 0.01 µM worked out at 20%.

Consider `COc1cccc(CC(=O)Nc2cccc(C(=O)c3ccc4c(/C=C/c5ccccc5)n[nH]c4c3)c2)c1`, for which the inhibition at 0.01 µM turned out to be 87%. On the same count and under the same terms, as for `O=C(c1cccc(NC(=O)c2cc(=O)cco2)c1)c1ccc2c(/C=C/c3ccccc3)n[nH]c2c1`, the figure is -13%; as for `C[C@@H](CC(=O)Nc1cccc(C(=O)c2ccc3c(/C=C/c4ccccc4)n[nH]c3c2)c1)c1ccccc1`, 52%.

As for `CC(C)[C@@H](O)C(=O)Nc1cccc(Oc2ccc3c(/C=C/c4ccccc4)n[nH]c3c2)c1`, the inhibition at 0.01 µM turned out to be 32%. The same measure, in the same setting: as for `C/C(=C\C(=O)Nc1cccc(Nc2ccc3c(/C=C/c4ccccc4)n[nH]c3c2)c1)c1ccccc1C`, the figure is 75%; as for `O=C(Nc1cccc(Oc2ccc3c(/C=C/c4ccccc4)n[nH]c3c2)c1)C1CC2C=CCC(C2)C1` (configuration not stated), 17%.

As for `CCCN(CCC)CC(=O)Nc1cccc(C(=O)c2ccc3c(/C=C/c4ccccc4)n[nH]c3c2)c1`, the inhibition at 0.01 µM is -2%. Same read-out and setting: as for `O=C(Nc1cccc(C(=O)c2ccc3c(/C=C/c4ccccc4)n[nH]c3c2)c1)C(=O)C1=CCCCC1`, the figure is 45%.

Consider `O=C(Nc1cccc(C(=O)c2ccc3c(/C=C/c4ccccc4)n[nH]c3c2)c1)C1=C[C@@H](O)[C@@H](O)[C@H](O)C1`, for which the inhibition at 0.01 µM is -20%.

Regarding `O=C(Nc1cccc(Oc2ccc3c(/C=C/c4ccccc4)n[nH]c3c2)c1)c1cccc2cc[nH]c12`, the inhibition at 0.01 µM is 68%. On the same count and under the same terms, as for `C[C@@H]1[C@H](C)[C@H](C)C[C@@H]1C(=O)Nc1cccc(C(=O)c2ccc3c(/C=C/c4ccccc4)n[nH]c3c2)c1`, the figure is 5%; as for `O=C1C[C@H](C(=O)Nc2cccc(Nc3ccc4c(/C=C/c5ccccc5)n[nH]c4c3)c2)NC(=O)N1`, 17%; as for `CC1(C)OC(=O)[C@H](CC(=O)Nc2cccc(Oc3ccc4c(/C=C/c5ccccc5)n[nH]c4c3)c2)O1`, 22%.

Turning to `C[C@@]12C[C@H]3C[C@H]1C[C@@]3(C(=O)Nc1cccc(Nc3ccc4c(/C=C/c5ccccc5)n[nH]c4c3)c1)C2`, the inhibition at 0.01 µM was found to be 15%.

With `O=C(Nc1cccc(Oc2ccc3c(/C=C/c4ccccc4)n[nH]c3c2)c1)c1cc(=O)[nH]c(=O)[nH]1`, the inhibition at 0.01 µM came out at 90%. The same measure, in the same setting: in the case of `O=C(Cc1c(F)cccc1F)Nc1cccc(Oc2ccc3c(/C=C/c4ccccc4)n[nH]c3c2)c1` it was 93%; in that of `COc1ccc(C#N)c(C(=O)Nc2cccc(Nc3ccc4c(/C=C/c5ccccc5)n[nH]c4c3)c2)c1`, -18%.

In the case of `O=C(c1cccc(NC(=O)C2C[C@H]3C[C@@H]2CCC3O)c1)c1ccc2c(/C=C/c3ccccc3)n[nH]c2c1` (some centres not stated), the inhibition at 0.01 µM was found to be 27%. Still for that read-out and setting: in the case of `CC(=O)N1CCC[C@@H]1C(=O)Nc1cccc(Oc2ccc3c(/C=C/c4ccccc4)n[nH]c3c2)c1` it was 20%; in that of `O=C(Cn1ccc2ccccc21)Nc1cccc(Nc2ccc3c(/C=C/c4ccccc4)n[nH]c3c2)c1`, -7%.

Turning to `CC(=O)NC(C)(C)CC(=O)Nc1cccc(Oc2ccc3c(/C=C/c4ccccc4)n[nH]c3c2)c1`, the inhibition at 0.01 µM was determined as 42%.

On to `O=C(Nc1cccc(Nc2ccc3c(/C=C/c4ccccc4)n[nH]c3c2)c1)c1cccc2[nH]ccc12`, for which the inhibition at 0.01 µM is 94%. Take `Cc1cc(C(=O)Nc2cccc(Oc3ccc4c(/C=C/c5ccccc5)n[nH]c4c3)c2)oc(=O)c1`: the inhibition at 0.01 µM was 83%. On the same count and under the same terms, in the case of `CC(C)CC(=O)C(=O)Nc1cccc(C(=O)c2ccc3c(/C=C/c4ccccc4)n[nH]c3c2)c1` it was 81%. Regarding `COc1cccc(CC(=O)Nc2cccc(Oc3ccc4c(/C=C/c5ccccc5)n[nH]c4c3)c2)c1`, the inhibition at 0.01 µM was 86%. Turning to `O=C(Nc1cccc(Nc2ccc3c(/C=C/c4ccccc4)n[nH]c3c2)c1)c1cc(=O)cco1`, the inhibition at 0.01 µM was 17%.

Another data set can be described thus: Terminal half life in B6 mouse at 50 mg/kg, po by UV-HPLC analysis. Type of data set: ADME, organism-based. The note with it: B6, mouse, in vivo, read-out: beta t1/2 (converted).
With `Cn1nc(C(C)(C)C)cc1C(=O)Nc1cccc(C(=O)c2ccc3c(/C=C/c4ccccn4)n[nH]c3c2)c1`, the half-life is 1.9 h. The same measure, in the same setting: in the case of `O=C(Nc1cccc(C(=O)c2ccc3c(/C=N/n4cccc4)n[nH]c3c2)c1)c1ccccc1` it was 3 h. For the molecule `O=C(c1cccc(NC(=O)c2cccc3[nH]ccc23)c1)c1ccc2c(/C=C/c3ccccn3)n[nH]c2c1`, the half-life was 1.5 h. For `CC(=O)c1ccc(C(=O)Nc2cccc(C(=O)c3ccc4c(/C=C/c5ccccn5)n[nH]c4c3)c2)s1`, the half-life was 1.6 h. Still for that read-out and setting: in the case of `O=C(c1cccc(NC(=O)c2ccccn2)c1)c1ccc2c(/C=C/c3ccccn3)n[nH]c2c1` it was 0.9 h; in that of `CC(C)ONC(=O)c1ccccc1Sc1ccc2c(/C=C/c3ccccn3)n[nH]c2c1`, 1.1 h; in that of `O=C(NC1CC1)c1ccccc1Sc1ccc2c(/C=C/c3ccccn3)n[nH]c2c1`, 0.7 h. Regarding `Cc1cc(C(=O)Nc2cccc(Oc3ccc4c(/C=C/c5ccccn5)n[nH]c4c3)c2)nn1C`, the half-life was 1 h. As for `CCn1nc(C)cc1C(=O)Nc1cc(C(=O)c2ccc3c(/C=C/c4ccccn4)n[nH]c3c2)ccc1C`, the half-life is 3.4 h.

The same data set, now with this note: mouse, in vivo, BLD = below limit of detection.
In the case of `Cc1cc(C(=O)Nc2cccc(C(=O)c3ccc4c(/C=C/c5ccccn5)n[nH]c4c3)c2)on1`, the “beta t1/2” value is reported as “Bld”.

Turning to `O=C(Nc1cccc(C(=O)c2ccc3c(-c4nc5cccnc5[nH]4)n[nH]c3c2)c1)c1ccccc1`, the “beta t1/2” value is “Bld”.

The next data set is described as follows: Terminal half life in B6 mouse at 25 mg/kg, ip by UV-HPLC analysis. Type of data set: ADME, organism-based. The note with it: in vivo, read-out: beta t1/2 (converted).
Take `Cn1nc(C(C)(C)C)cc1C(=O)Nc1cccc(C(=O)c2ccc3c(/C=C/c4ccccn4)n[nH]c3c2)c1`: the half-life is 3.2 h.

Consider `O=C(Nc1cccc(C(=O)c2ccc3c(/C=N/n4cccc4)n[nH]c3c2)c1)c1ccccc1`, for which the half-life is 2 h. `O=C(c1cccc(NC(=O)c2cccc3[nH]ccc23)c1)c1ccc2c(/C=C/c3ccccn3)n[nH]c2c1`: the half-life is 2.8 h. With `CC(=O)c1ccc(C(=O)Nc2cccc(C(=O)c3ccc4c(/C=C/c5ccccn5)n[nH]c4c3)c2)s1`, the half-life was 1.6 h. On the same count and under the same terms, as for `O=C(Nc1cccc(Oc2ccc3c(/C=C/c4ccccn4)n[nH]c3c2)c1)c1ccccc1`, the figure is 2.4 h. Same read-out and setting: in the case of `O=C(c1cccc(NC(=O)c2ccccn2)c1)c1ccc2c(/C=C/c3ccccn3)n[nH]c2c1` it was 2.1 h; in that of `O=C(NC1CC1)c1ccccc1Sc1ccc2c(/C=C/c3ccccn3)n[nH]c2c1`, 1 h. Same read-out and setting: in the case of `Cc1cc(C(=O)Nc2cccc(Oc3ccc4c(/C=C/c5ccccn5)n[nH]c4c3)c2)nn1C` it was 1.7 h. As to `CCn1nc(C)cc1C(=O)Nc1cc(C(=O)c2ccc3c(/C=C/c4ccccn4)n[nH]c3c2)ccc1C`, the half-life is 4 h. For `CCOCCNC(=O)c1ccccc1Sc1ccc2c(/C=C/c3ccccn3)n[nH]c2c1`, the half-life is 1.8 h.

The term inhibition denotes the relative decrease from the control value, in per cent.
